The values below come from publication PMC9098912, “Molecular basis for inhibiting human glucose transporters by exofacial inhibitors” (Nature Communications, 2022).

One test has as its target T1, human GLUT3(N43T) (Homo sapiens, UniProt P11169, N43T).
T1 construct: His10 (N); made in house; host or cells: Sf9 insect cells (baculovirus)
T1 sequence (P11169 1-496 N43T): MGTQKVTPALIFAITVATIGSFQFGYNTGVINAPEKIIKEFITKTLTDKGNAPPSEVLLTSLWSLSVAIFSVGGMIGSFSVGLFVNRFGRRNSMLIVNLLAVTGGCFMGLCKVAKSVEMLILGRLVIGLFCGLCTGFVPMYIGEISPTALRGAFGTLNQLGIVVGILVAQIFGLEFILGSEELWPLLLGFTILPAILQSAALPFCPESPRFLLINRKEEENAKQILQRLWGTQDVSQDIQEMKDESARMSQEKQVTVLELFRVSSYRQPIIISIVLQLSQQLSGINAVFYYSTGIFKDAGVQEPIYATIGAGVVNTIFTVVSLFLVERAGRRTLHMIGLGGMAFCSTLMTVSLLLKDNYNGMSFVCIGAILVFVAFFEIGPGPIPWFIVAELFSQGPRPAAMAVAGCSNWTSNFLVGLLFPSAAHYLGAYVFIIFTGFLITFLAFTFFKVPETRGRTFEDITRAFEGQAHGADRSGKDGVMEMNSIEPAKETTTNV
The test is described as follows: Proteoliposome-based counterflow assay, inhibition of D-[2-3H]-glucose transport. Format: biochemical. How it is done: (§1) All mutants were generated by standard PCR-based strategy.
(§2) All counterflow assays were performed at 25 °C. […] Liposome without protein was used as negative control.
(§3) All experiments were repeated at least three times.

The target of test [1] is T2, human glucose transporter GLUT1(N45T) (Homo sapiens, UniProt P11166, N45T).
T2 construct: made in house
T2 sequence (P11166 1-492 N45T): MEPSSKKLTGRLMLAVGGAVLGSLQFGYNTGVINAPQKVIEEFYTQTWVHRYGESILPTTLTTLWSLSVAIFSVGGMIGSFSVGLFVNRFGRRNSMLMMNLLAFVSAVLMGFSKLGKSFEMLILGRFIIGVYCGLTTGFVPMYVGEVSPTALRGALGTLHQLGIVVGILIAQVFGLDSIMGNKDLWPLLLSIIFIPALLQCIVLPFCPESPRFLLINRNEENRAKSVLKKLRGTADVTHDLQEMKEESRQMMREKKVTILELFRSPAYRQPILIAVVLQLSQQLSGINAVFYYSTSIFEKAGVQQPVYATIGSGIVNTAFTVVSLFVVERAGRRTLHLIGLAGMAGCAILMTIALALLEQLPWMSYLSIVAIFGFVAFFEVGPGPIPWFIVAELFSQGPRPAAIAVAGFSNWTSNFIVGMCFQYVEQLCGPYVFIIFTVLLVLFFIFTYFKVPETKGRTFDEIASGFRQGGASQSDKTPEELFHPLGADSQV
Described as above. Format: biochemical. Particulars: GLUT1. How it is done:
as §1, §2, §3

For a further test, the target named is GLUT3 F70A (Homo sapiens, UniProt P11169, F70A/N43T). The test is described as follows: biochemical. How it is done:
The recombinant human glucose transporter GLUT1(N45T) and E. coli (strain O157:H7) D-xylose:proton symporter XylE were expressed and purified as described previously[17],[26]. […] In brief, the cDNA of human GLUT3 was cloned into a modified pFastBac vector (Invitrogen) fused with an N-terminal His10 tag. All mutants were generated by standard PCR-based strategy.
(§4) Inhibitors with serial dilutions were mixed with indicated protein. […] MST analyses were conducted on a Monolith NT. […] The MST data was analyzed by Monolith NT.115.

The target of the next test is T3, GLUT3 N413A (Homo sapiens, UniProt P11169, N413A/N43T).
T3 construct: His10 (N); made in house; host or cells: Sf9 insect cells (baculovirus)
T3 sequence (P11169 1-496 N43T/N413A): T1 sequence (P11169 1-496 N43T) with N413A
Put plainly: MST binding assay, GLUT3 variant. The following applies: read-out: Kd of SA47. As for the experimental part:
as §1, §4

The next test deals with T4, GLUT3 W386A (Homo sapiens, UniProt P11169, N43T/W386A).
T4 construct: His10 (N); made in house; host or cells: Sf9 insect cells (baculovirus)
T4 sequence (P11169 1-496 N43T/W386A): T1 sequence (P11169 1-496 N43T) with W386A
The test is described as follows: MST binding assay, GLUT3 variant. Particulars: read-out: Kd of SA47. How it is done: as §1, §4

Changes are numbered by the printed parent chain.

Sequence of GLUT3 F70A (P11169 whole entry N43T/F70A, the tested form may be a part): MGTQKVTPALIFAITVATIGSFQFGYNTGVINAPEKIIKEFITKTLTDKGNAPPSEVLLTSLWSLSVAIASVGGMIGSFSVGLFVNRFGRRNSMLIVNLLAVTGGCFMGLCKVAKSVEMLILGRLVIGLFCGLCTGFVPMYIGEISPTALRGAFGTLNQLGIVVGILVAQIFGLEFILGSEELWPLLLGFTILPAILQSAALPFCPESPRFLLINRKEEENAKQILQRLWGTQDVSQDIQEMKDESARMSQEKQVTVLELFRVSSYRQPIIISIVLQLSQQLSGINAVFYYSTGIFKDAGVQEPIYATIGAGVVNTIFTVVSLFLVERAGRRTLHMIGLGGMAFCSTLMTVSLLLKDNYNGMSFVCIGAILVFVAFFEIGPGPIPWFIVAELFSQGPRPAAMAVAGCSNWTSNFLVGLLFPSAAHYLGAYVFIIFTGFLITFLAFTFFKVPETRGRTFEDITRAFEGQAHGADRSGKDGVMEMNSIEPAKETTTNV

As to `COC(=O)CCNCc1ccccc1-n1ncc2c(N3CCN(c4cc(F)ccc4OC)CC3)ncnc21` [SA47], the 50% inhibitory concentration (IC50) was 823 ± 138 nM on human GLUT3(N43T) and 331 ± 38.3 nM in test [1]. For the same compound, the inhibition at 160 µM (on human GLUT3(N43T) (SA47 at 160 μM); in test [1] (SA47 at 160 μM)) was about 85% each time. The Kd on GLUT3 F70A amounted to 1500 ± 200 nM; at GLUT3 N413A it was 810 ± 214 nM; on GLUT3 W386A, 30300 ± 10700 nM.

One may read the IC50 as the point on the concentration scale where inhibition reaches its midpoint. Higher therefore signals lower potency. By inhibition is commonly meant how much of the control response was suppressed. A high value points to a strong effect. For orientation: Kd means the equilibrium constant for the complex coming apart.
